Assay [1] concerns S. aureus ATTC 25923. Kind of assay: microbe, parasite or virus in culture. The conditions noted are these: Staphylococcus aureus, ATTC25923, read-out: Sau MIC.
For assay [2], the system named is M. tuberculosis H37Rv. Kind of assay: microbe, parasite or virus in culture. In kind it is cell-based, Mycobacterium tuberculosis.
The target in assay [3] is Mtb gyrase (Mycobacterium tuberculosis, UniProt P9WG45+P9WG47). Kind of assay: biochemical. In kind it is biochemical.

The structures appear in SMILES notation. In brackets after ≈: the same amount, converted by molar mass.

Sequence of Mtb gyrase (P9WG45 whole entry, looked up): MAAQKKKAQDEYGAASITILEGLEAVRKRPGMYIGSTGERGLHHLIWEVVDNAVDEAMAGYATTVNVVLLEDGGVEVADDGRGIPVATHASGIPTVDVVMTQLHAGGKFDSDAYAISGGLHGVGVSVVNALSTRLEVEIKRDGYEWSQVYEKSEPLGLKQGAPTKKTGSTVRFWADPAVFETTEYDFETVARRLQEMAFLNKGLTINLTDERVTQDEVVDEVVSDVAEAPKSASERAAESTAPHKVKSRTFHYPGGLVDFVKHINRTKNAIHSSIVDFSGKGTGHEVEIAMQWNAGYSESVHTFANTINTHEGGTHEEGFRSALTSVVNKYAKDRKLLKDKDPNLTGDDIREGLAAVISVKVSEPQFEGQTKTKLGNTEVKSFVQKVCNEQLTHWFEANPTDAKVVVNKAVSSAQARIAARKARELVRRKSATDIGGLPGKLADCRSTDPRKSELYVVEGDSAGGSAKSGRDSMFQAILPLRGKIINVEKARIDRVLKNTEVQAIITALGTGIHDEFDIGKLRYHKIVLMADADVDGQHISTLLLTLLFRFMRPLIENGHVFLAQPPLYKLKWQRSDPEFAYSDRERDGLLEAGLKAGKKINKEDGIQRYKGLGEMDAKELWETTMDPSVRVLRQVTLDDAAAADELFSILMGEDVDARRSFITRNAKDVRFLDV
Sequence of Mtb gyrase (P9WG47 whole entry, looked up): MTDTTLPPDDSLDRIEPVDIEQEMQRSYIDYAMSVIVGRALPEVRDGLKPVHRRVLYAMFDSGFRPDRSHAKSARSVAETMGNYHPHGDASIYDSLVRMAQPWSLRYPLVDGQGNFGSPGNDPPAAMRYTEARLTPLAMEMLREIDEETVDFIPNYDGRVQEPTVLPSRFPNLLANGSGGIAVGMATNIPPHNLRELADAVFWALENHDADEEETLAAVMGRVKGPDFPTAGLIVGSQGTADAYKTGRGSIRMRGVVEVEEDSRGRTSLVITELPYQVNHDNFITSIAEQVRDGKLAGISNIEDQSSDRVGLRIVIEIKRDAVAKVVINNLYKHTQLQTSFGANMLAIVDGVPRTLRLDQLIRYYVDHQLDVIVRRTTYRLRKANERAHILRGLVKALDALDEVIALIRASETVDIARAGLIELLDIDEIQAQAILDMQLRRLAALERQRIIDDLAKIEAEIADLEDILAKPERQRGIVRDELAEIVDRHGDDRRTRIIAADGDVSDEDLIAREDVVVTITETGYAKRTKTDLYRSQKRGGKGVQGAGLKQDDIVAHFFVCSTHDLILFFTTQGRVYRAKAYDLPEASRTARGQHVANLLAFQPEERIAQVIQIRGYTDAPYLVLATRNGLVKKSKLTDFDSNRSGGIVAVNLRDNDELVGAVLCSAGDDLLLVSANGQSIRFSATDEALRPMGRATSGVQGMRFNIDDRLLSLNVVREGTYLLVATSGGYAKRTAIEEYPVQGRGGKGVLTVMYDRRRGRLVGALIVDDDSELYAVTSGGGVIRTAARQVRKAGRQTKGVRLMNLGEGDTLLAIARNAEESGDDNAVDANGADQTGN

On to `C[C@@H]1CN2c3c(cc4c(N5CC[C@@H](O)C5)noc4c3F)CC3(C(=O)NC(=O)NC3=O)[C@H]2[C@H](C)O1` [Compound 9, (2R,4S,4aS)-11-fluoro-8-((R)-3-hydroxypyrrolidin-1-yl)-2,4-dimethyl-1,2,4,4a-tetrahydro-2’H,6H-spiro[isoxazolo[4,5-g][1,4]oxazino[4,3-a]quinoline-5,5’-pyrimidine]-2’,4’,6’(1’H,3’H)-trione], for which, in assay [1], the MIC was found to be 64 µM (≈ 30.3 µg/mL).
The same measure, in the same setting: the same measure for `C[C@@H]1CN2c3c(cc4c(N5C[C@H](O)[C@@H](O)C5)noc4c3F)CC3(C(=O)NC(=O)NC3=O)[C@H]2[C@H](C)O1` [Compound 11, (2R,4S,4aS)-8-((3S,4S)-3,4-dihydroxypyrrolidin-1-yl)-11-fluoro-2,4-dimethyl-1,2,4,4a-tetrahydro-2’H,6H-spiro[isoxazolo[4,5-g][1,4]oxazino[4,3-a]quinoline-5,5’-pyrimidine]-2’,4’,6’(1’H,3’H)-trione]: > 125 µM; for `C[C@@H]1CN2c3c(cc4c(N5C[C@@H](O)[C@@H](O)C5)noc4c3F)CC3(C(=O)NC(=O)NC3=O)[C@H]2[C@H](C)O1` [Compound 12, (2R,4S,4aS)-8-((3R,4S)-3,4-dihydroxypyrrolidin-1-yl)-11-fluoro-2,4-dimethyl-1,2,4,4a-tetrahydro-2’H,6H-spiro[isoxazolo[4,5-g][1,4]oxazino[4,3-a]quinoline-5,5’-pyrimidine]-2’,4’,6’(1’H,3’H)-trione]: > 125 µM.
Regarding `C[C@@H]1CN2c3c(cc4c(N5CC[C@H](N)C5)noc4c3F)CC3(C(=O)NC(=O)NC3=O)[C@H]2[C@H](C)O1` [Compound 16, (2R,4S,4aS)-8-((S)-3-aminopyrrolidin-1-yl)-11-fluoro-2,4-dimethyl-1,2,4,4a-tetrahydro-2’H,6H-spiro[isoxazolo[4,5-g][1,4]oxazino[4,3-a]quinoline-5,5’-pyrimidine]-2’,4’,6’(1’H,3’H)-trione], the “fold higher Mtb MIC compared to 8” value in assay [2] is given as 9 to16 fold. Besides, the “Mtb gyrase IC50 fold higher (less potent) than moxifloxacin” value in assay [3] is listed as “around 2 fold”.
As to `C[C@@H]1CN2c3c(cc4c(N5CCC[C@@H](O)C5)noc4c3F)CC3(C(=O)NC(=O)NC3=O)[C@H]2[C@H](C)O1` [Compound 22, (2R,4S,4aS)-11-fluoro-8-((R)-3-hydroxypiperidin-1-yl)-2,4-dimethyl-1,2,4,4a-tetrahydro-2’H,6H-spiro[isoxazolo[4,5-g][1,4]oxazino[4,3-a]quinoline-5,5’-pyrimidine]-2’,4’,6’(1’H,3’H)-trione], the MIC in assay [1] was 94 µM (≈ 45.8 µg/mL).
Consider `C[C@@H]1CN2c3c(cc4c(OC[C@H]5CCC(=O)N5)noc4c3F)CC3(C(=O)NC(=O)NC3=O)[C@H]2[C@H](C)O1` [Compound 24, (2R,4S,4aS)-11-fluoro-2,4-dimethyl-8-(((R)-5-oxopyrrolidin-2-yl)methoxy)-1,2,4,4a-tetrahydro-2’H,6H-spiro[isoxazolo[4,5-g][1,4]oxazino[4,3-a]quinoline-5,5’-pyrimidine]-2’,4’,6’(1’H,3’H)-trione], for which the MIC in assay [1] is > 125 µM.
For orientation: IC50 means the concentration at which inhibition is half-maximal. High values mean lower potency, low ones higher potency. Regarding `C[C@@H]1CN2c3c(cc4c(OC[C@@H]5CCC(=O)N5)noc4c3F)CC3(C(=O)NC(=O)NC3=O)[C@H]2[C@H](C)N1C#N` [Compound 42, (2R,4S,4aS)-11-fluoro-2,4-dimethyl-2’,4’,6’-trioxo-8-(((S)-5-oxopyrrolidin-2-yl)methoxy)-1,1’,2,3’,4,4a,4’,6’-octahydro-2’H,3H,6H-spiro[isoxazolo[4,5-g]pyrazino[1,2-a]quinoline-5,5’-pyrimidine]-3-carbonitrile], the IC50 in assay [3] was 2.6 µM.
`Cc1nnc(-c2noc3c(F)c4c(cc23)CC2(C(=O)NC(=O)NC2=O)[C@H]2[C@H](C)O[C@H](C)CN42)o1` [Methyl-oxadiazole 5, reference compound]: in assay [2], the “fold less active against Mtb than moxifloxacin” value is recorded as 10 fold. Also, in assay [2] (Mycobacterium tuberculosis, H37RV, read-out: Mtb MIC), the MIC was determined as 1.7 µM (≈ 0.8 µg/mL). Further, the “fold more potent as inhibitor of Mtb gyrase than moxifloxacin” value in assay [3] stood at 5 fold.

These data come from PMC9233935 (Journal of medicinal chemistry, 2022).
